Measurements taken from US20050101595A1, “N-containing cycloalkyl-substituted amino-thiazole derivatives and pharmaceutical compositions for inhibiting cell proliferation and methods for their use” (PFIZER INC., priority 2003, published 2005).
Counter-ions that a name gives are not always drawn. Like-named read-outs stand apart in the source and are kept apart here.

Columns and labels:
HCT-116 cell line = assay: Inhibition of cell growth, tetrazolium salt (MTT) assay; format: cell-based; conditions: for IC50: Homo sapiens, HCT-116, 120 h, MTT, three to five days, read-out: HCT-116 IC50; for HCT-116 % Inhibition at 0.25 μM: 0.25 μM compound
Outline: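 MTT colorimetric viability: three-to-five-day compound exposure in 0.5% (v/v) DMSO at 37° C, MTT 0.2 mg/mL for the last 4 h, A540 compared with vehicle-treated cells.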

CDK2/Cyclin A = CDK2/Cyclin A (Homo sapiens, UniProt P24941); assay: Inhibition of CDK2/Cyclin A Retinoblastoma Kinase Activity; format: biochemical; conditions: for Ki: apparent Ki, CDK2/proteolyzed cyclin A, Rb fragment substrate, 25 μM ATP
Outline: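 CDK2 (10 or 19 nM), insect-cell expressed, gel-filtration purified with truncated cyclin A; Rb fragment substrate; 25 μM ATP; 10 mM HEPES pH 7.4, 10 mM MgCl2; 30° C, 60 or 75 min; EDTA stop; phosphocellulose/nitrocellulose capture, phosphorimager. % inhibition vs DMSO control, no-enzyme background subtracted.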

[1] = molecular target: human CDK4 and genetically truncated (1-264) cyclin D3 (Homo sapiens, UniProt P11802); assay: Inhibition of CDK4/Cyclin D Retinoblastoma Kinase Activity; format: biochemical; conditions: for Ki: apparent Ki, CDK4/truncated cyclin D3, Rb fragment substrate, 25 μM ATP
Sequence of human CDK4 and genetically truncated (1-264) cyclin D3 (P11802 whole entry, the tested form may be a part): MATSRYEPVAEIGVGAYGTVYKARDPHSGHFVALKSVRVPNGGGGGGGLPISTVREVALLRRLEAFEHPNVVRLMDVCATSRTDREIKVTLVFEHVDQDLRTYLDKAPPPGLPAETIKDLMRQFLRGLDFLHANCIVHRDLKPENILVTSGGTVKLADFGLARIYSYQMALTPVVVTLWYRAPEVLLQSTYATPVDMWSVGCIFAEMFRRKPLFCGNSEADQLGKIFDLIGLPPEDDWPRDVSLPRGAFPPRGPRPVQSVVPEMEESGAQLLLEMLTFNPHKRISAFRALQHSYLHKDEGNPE
Sequence of human CDK4 and genetically truncated (1-264) cyclin D3 (P30281 1-264 partner): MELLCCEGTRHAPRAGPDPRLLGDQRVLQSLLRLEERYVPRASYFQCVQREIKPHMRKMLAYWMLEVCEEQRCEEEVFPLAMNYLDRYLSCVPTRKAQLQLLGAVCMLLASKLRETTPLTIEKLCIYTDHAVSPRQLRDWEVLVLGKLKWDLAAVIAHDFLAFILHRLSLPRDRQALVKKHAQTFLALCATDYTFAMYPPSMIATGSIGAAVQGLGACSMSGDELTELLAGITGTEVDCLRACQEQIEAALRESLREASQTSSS
Outline: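 The enzyme complex (5 nM), expressed in co-infected insect cells, was incubated with recombinant Rb fragment, 25 μM radiolabelled ATP and 2% DMSO at 30 °C. Reactions were stopped with EDTA after 20 minutes, or 60 minutes for tight-binding inhibitors. Apparent Ki values came from competitive inhibition fits.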

[2] = 0.1 μM compound, HCT-116, Table 4
[3] = 0.1 μM compound, HCT-116, Table 3

CN1CCN=C1c1ccc(S(=O)(=O)N2CCC(Nc3nc(N)c(C(=O)c4c(F)cccc4F)s3)CC2)cc1 [Example J1, 1-[4-Amino-2-{1-[4-(1-methyl-4,5-dihydro-1H-imidazol-2-yl)-benzenesulfonyl]-piperidin-4-ylamino}-thiazol-5-yl)-1-(2,6-difluoro-phenyl)-methanone]
IC50 (HCT-116 cell line; first HCT-116 column (c4)): 1200 nM | IC50 (HCT-116 cell line; second HCT-116 column (c5)): 5000 nM | Ki (CDK2/Cyclin A): < 1 nM | Ki [1]: 0.63 nM

Nc1nc(NC2CCN(S(=O)(=O)c3ccc(N4CCC(O)CC4)nc3)CC2)sc1C(=O)c1c(F)cccc1F [Example G9, 1-{4-Amino-2-[1-(4Hydroxy-3,4,5,6-tetrahydro-2H-[1,2′]bipyridinyl-5′-sulfonyl)-piperidin-4-ylamino]-thiazol-5-yl}-1-(2,6-difluoro-phenyl)-methanone]
IC50 (HCT-116 cell line; first HCT-116 column (c4)): 170 nM | IC50 (HCT-116 cell line; second HCT-116 column (c5)): 1800 nM | Ki (CDK2/Cyclin A): 0.52 nM | Ki [1]: 2.2 nM

Nc1nc(NC2CCN(C(=O)c3cccc(Br)c3)CC2)sc1C(=O)c1c(F)cccc1F [Example Q18]
HCT-116 % Inhibition at 0.1 μM (HCT-116 cell line; [2]): 59% | HCT-116 % Inhibition at 0.25 μM (HCT-116 cell line; HCT-116, Table 4): 92% | CDK2 % Inhibition at 0.03 μM (CDK2/Cyclin A; 0.03 μM compound, Table 4): 44% | CDK4 % Inhibition at 0.03 μM ([1]; 0.03 μM compound, Table 4): 73%

Nc1nc(NC2CCN(C(=O)OCc3ccccc3)CC2)sc1C(=O)c1c(F)cccc1F [Example Q6]
HCT-116 % Inhibition at 0.1 μM (HCT-116 cell line; [2]): 9% | HCT-116 % Inhibition at 0.25 μM (HCT-116 cell line; HCT-116, Table 4): 38% | CDK2 % Inhibition at 0.03 μM (CDK2/Cyclin A; 0.03 μM compound, Table 4): −32% | CDK4 % Inhibition at 0.03 μM ([1]; 0.03 μM compound, Table 4): 24%

Nc1nc(NC2CCN(C(=O)c3cc(Cl)ccc3O)CC2)sc1C(=O)c1c(F)cccc1F [Example R120]
HCT-116 % Inhibition at 0.1 μM (HCT-116 cell line; HCT-116 cells, at 0.1 μM): 0% | HCT-116 5 Inhibition at 0.25 μM (HCT-116 cell line; HCT-116 cells): 47 | CDK2 % Inhibition at 0.03 μM (CDK2/Cyclin A; at 0.03 μM): 18% | CDK4 % Inhibition at 0.03 μM ([1]; at 0.03 μM): 4%

Cc1ccc(C(=O)N2CCC(Nc3nc(N)c(C(=O)c4c(F)cccc4F)s3)CC2)cc1F [Example R131]
HCT-116 % Inhibition at 0.1 μM (HCT-116 cell line; HCT-116 cells, at 0.1 μM): 1% | HCT-116 5 Inhibition at 0.25 μM (HCT-116 cell line; HCT-116 cells): 44 | CDK2 % Inhibition at 0.03 μM (CDK2/Cyclin A; at 0.03 μM): 42% | CDK4 % Inhibition at 0.03 μM ([1]; at 0.03 μM): 58%

Nc1nc(NC2CCN(S(=O)(=O)c3ccc(OCc4cccnc4)nc3)CC2)sc1C(=O)c1c(F)cccc1F [Example H8, 1-(4-Amino-2-{1-[6-(pyridin-3-ylmethoxy)-pyridine-3-sulfonyl]-piperidin-4-ylamino}-thiazol-5-yl)-1-(2,6-difluoro-phenyl)-methanone Trifluoroacetic Acid Salt]
IC50 (HCT-116 cell line; first HCT-116 column (c4)): 580 nM | IC50 (HCT-116 cell line; second HCT-116 column (c5)): 1300 nM | Ki (CDK2/Cyclin A): < 1 nM | Ki [1]: 0.67 nM

CS(=O)(=O)c1ccccc1S(=O)(=O)N1CCC(Nc2nc(N)c(C(=O)c3c(F)cccc3F)s2)CC1 [Example P81]
HCT-116 % Inhibition at 0.1 μM (HCT-116 cell line; [3]): 12% | HCT-116 % Inhibition at 0.25 μM (HCT-116 cell line; HCT-116, Table 3): 19% | CDK2 % Inhibition at 0.03 μM (CDK2/Cyclin A; 0.03 μM compound, Table 3): −5% | CDK4 % Inhibition at 0.03 μM ([1]; 0.03 μM compound, Table 3): 36%

CSc1nccc(-c2ccc(S(=O)(=O)N3CCC(Nc4nc(N)c(C(=O)c5c(F)cccc5F)s4)CC3)s2)n1 [Example P72]
HCT-116 % Inhibition at 0.1 μM (HCT-116 cell line; [3]): 13% | HCT-116 % Inhibition at 0.25 μM (HCT-116 cell line; HCT-116, Table 3): 35% | CDK2 % Inhibition at 0.03 μM (CDK2/Cyclin A; 0.03 μM compound, Table 3): 61% | CDK4 % Inhibition at 0.03 μM ([1]; 0.03 μM compound, Table 3): 61%

Nc1nc(NC2CCN(S(=O)(=O)c3ccc(-c4cccnc4)cc3)CC2)sc1C(=O)c1c(F)cccc1F [Example I8, 1-{4-Amino-2-[1-(4-pyridin-3-yl-benzenesulfonyl)-piperidin-4-ylamino]-thiazol-5-yl}-1-(2,6-difluoro-phenyl)-methanone Trifluoroacetic Acid Salt]
IC50 (HCT-116 cell line; first HCT-116 column (c4)): 71 nM | IC50 (HCT-116 cell line; second HCT-116 column (c5)): 500 nM | Ki (CDK2/Cyclin A): 0.3 nM | Ki [1]: 0.48 nM

Nc1nc(NC2CCN(S(=O)(=O)c3ccc(C(=O)O)cc3)CC2)sc1C(=O)c1c(F)cccc1F [Example F14, 4-{4-[4-Amino-5-(2,6-difluoro-benzoyl)-thiazol-2-ylamino]-piperidine-1-sulfonyl}-benzoic Acid]
IC50 (HCT-116 cell line; first HCT-116 column (c4)): < 5000 nM | IC50 (HCT-116 cell line; second HCT-116 column (c5)): < 5000 nM | Ki (CDK2/Cyclin A): 2 nM | Ki [1]: 14 nM

CCCCS(=O)(=O)N1CCC(Nc2nc(N)c(C(=O)c3c(F)cccc3F)s2)CC1 [Example P27]
HCT-116 % Inhibition at 0.1 μM (HCT-116 cell line; [3]): 4% | HCT-116 % Inhibition at 0.25 μM (HCT-116 cell line; HCT-116, Table 3): 23% | CDK2 % Inhibition at 0.03 μM (CDK2/Cyclin A; 0.03 μM compound, Table 3): 16% | CDK4 % Inhibition at 0.03 μM ([1]; 0.03 μM compound, Table 3): 41%
